Source: patent US10351759B2, “Methods of assessing oil field saturation through use of reactive partitioning tracers” (RESTRACK AS, priority 2014, dated 2019)

Tests used:
Assay type in all cases: physicochemical
[1] = oil/water partition coefficient (K-value), static batch experiments, model oil
[2] = oil/water partition coefficient (K-value), static batch experiments, field oil phases North field 1 and North field 2; conditions: ionic strength in aqueous phase 0.776, pH 6.2, 50° C.
[3] = K-values of tested compounds A to G
Text: Some tested compounds having other combinations of substitution and hydroxyalkyl group position include compounds A to G shown in FIG. 3.
These compounds have K-values measured as follows:
The K-values can vary with pH, as shown below for compounds B and F: […]

[4] = pH (aqueous phase) 6.2, ionic strength in aqueous phase 0.776, model oil (isooctane 60%/toluene 30%/1-octanol 10%), 50° C.
[5] = pH (aqueous phase) 7.0, ionic strength in aqueous phase 0.776, model oil (isooctane 60%/toluene 30%/1-octanol 10%), 50° C.
[6] = pH (aqueous phase) 8.0, ionic strength in aqueous phase 0.776, model oil (isooctane 60%/toluene 30%/1-octanol 10%), 50° C.

Molecule	oil/water partition coefficient, K-value [1, 4]	oil/water partition coefficient, K-value [1, 5]	oil/water partition coefficient, K-value [1, 6]	oil/water partition coefficient, K-value ([2]; oil phase North field 1)	oil/water partition coefficient, K-value ([2]; oil phase North field 2)	oil/water partition coefficient, K-value ([1]; pH 6.2)	oil/water partition coefficient, K-value ([1]; pH 7)	oil/water partition coefficient, K-value ([1]; pH 8)	K-value ([3]; pH (aqueous phase) 6.2)	K-value ([3]; pH (aqueous phase) 7.0)	K-value ([3]; pH (aqueous phase) 8.0)
2,3-difluoro hydroxybenzoic acid [reference compound]	0.0	0.0	0.0	–	–	–	–	–	–	–	–
O=C(O)c1ccc(CO)cc1F [2-fluoro-4-(hydroxymethyl) benzoic acid, 2-Fluoro-4-(hydroxymethyl)benzoic acid]	–	–	–	0.0	0.0	0.0	0.0	0.0	–	–	–
COC(=O)c1c(F)ccc(CO)c1F [B, Methyl ester of 2-6-difluoro-3-hydroxymethyl benzoic acid]	–	–	–	–	–	–	–	–	3.0	2.8	2.4
CCCCOC(=O)c1ccc(CO)cc1F [Butyl ester of 2-fluoro-4-(hydroxymethyl) benzoic acid]	127.5	126.1	132.2	18.7	23.6	–	–	–	–	–	–
CCOC(=O)c1ccc(CO)cc1F [Ethyl ester of 2-fluoro-4-(hydroxymethyl) benzoic acid]	10.9	11.2	11.8	1.6	2.5	–	–	–	–	–	–
CCOC(=O)c1cc(F)cc(CO)c1 [F, Ethyl ester of 3-fluoro-5-hydroxymethyl benzoic acid]	–	–	–	–	–	–	–	–	6.7	6.3	6.1
COC(=O)c1ccc(CO)cc1F [Methyl ester of 2-fluoro-4-(hydroxymethyl) benzoic acid]	3.2	3.4	3.3	0.6	0.8	–	–	–	–	–	–
CCCOC(=O)c1ccc(CO)cc1F [Proply ester of 2-fluoro-4-(hydroxymethyl) benzoic acid]	41.7	44.2	48.7	5.9	7.5	–	–	–	–	–	–
